The record followed here is US20170367338A1, “COMPOSITIONS AND METHODS FOR IMPROVING AGRONOMIC CHARACTERISTICS OF PLANTS” (MONSANTO TECHNOLOGY LLC, priority 2014, published 2017).

For orientation: EC50 means the concentration that produces a half-maximal response.

In brackets after ≈: the same amount, converted by molar mass. Where two headings read alike, the source gives them in different places.

The subject of one data set is C. elegans. As to the kind of experiment: Three day C. elegans well assay. It counts as in vivo. The settings on record: Caenorhabditis elegans. The gist of the method:
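Contact assay in wells: DMSO dilutions (4 ul from 100× stocks at 10 mg/ml) with bacterial feed in M9 buffer plus ampicillin and nystatin. L1 (starvation-arrested) or L4 worms added, shaken at 20° C. Scored at 4, 24, 48 and 72 hours.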

Data set [1] has as its system Meloidogyne incognita. In words: Summer field evaluation of pre-plant incorporated compounds on squash. It counts as in vivo. The conditions noted are these: 4 kg/ha. The gist of the method:
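Compound in acetone/Triton X-100 emulsion mixed into sand/silt loam with galled tomato roots, filling top 15 cm of field plots (pre-plant incorporated), 6 replicates. Plots inoculated with 100k M. incognita eggs/larvae at 5 cm depth. Squash cv. Liberator III transplanted 4 days after treatment.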

In data set [2] the test system is Caenorhabditis elegans ced-3(n717) and ced-4(N1162) mutants. In words: Susceptibility of C. elegans apoptosis mutants on NGM agar plates. It counts as in vivo. The settings on record: 10μg/ml on NGM agar plates.
Data set [3] relates to Meloidogyne incognita. As to the kind of experiment: M. incognita miniaturized greenhouse assay on cucumber seedlings. The settings on record: 1 ppm; Table 1C test a. It counts as in vivo. As for the experimental part: The test compound is dissolved in an acetone solution and added to water. A sprouted cucumber seedling is placed into a vial with dry sand and the water-chemical solution is added immediately. Twenty four hours later Meloidogyne incognita eggs are added to the vials and 10 to 12 days later the roots are evaluated for nematode galling.
Cucumber seeds are sprouted for 3 days in moist paper towels. Acceptable sprouts should be 3 to 4 cm long with several lateral roots just emerging. Stock solutions of chemistry are prepared in a mixture of acetone and Triton X100 (412 mg in 500 mL) to a final concentration of 5 mg/mL. The chemical stock solution is then added to 10 mL deionized water plus 0.015% Triton X100 and mixed thoroughly. This is enough to test each condition in triplicate. Ten mL dry sand is added to each vial. At this time the solubility of the chemistry is visually determined and recorded as either ppt (large precipitates) or cloudy (fine precipitates). Seedlings are planted by tilting the vial and laying the seedling in the correct orientation so that the cotyledons are just above the sand and then tilting back to cover the radicles with sand. 3.3 ml water/chemical mix is added to each vial and the vials placed in racks under fluorescent light banks. The vials are inoculated two days after planting by adding 500 vermiform M. incognita eggs to each vial in 50 uL of deionized or spring water. The vials are then kept under the fluorescent lamps at ambient room temperature and watered as needed with 1mL deionized water, usually twice during duration of test. Harvest of the cucumber plants is done 10 to 12 days after inoculation by washing sand off the roots. A root gall rating and visual phytotoxicity rating is assigned using the following scales: Gall rating scale (Gall: % root mass galled): 0=0-5%; 1=6-20%; 2=21-50%; and 3=51-100%. The average of the triplicate gall rating is then calculated: green=0.00-0.33 (no galls); yellow=0.67-1.33 (mild galling); orange=1.67-2.33 (moderate galling); red=2.67-3.00 (severe galling). Visual phytotoxicity scale is also assigned (Vis. tox; visual reduction in root mass compared to the control): rs1=mild stunting; rs2=moderate stunting; rs3=severe stunting.

The format of data set [4] is in vivo. The settings on record: three female mice, observed up to 14 days. As for the experimental part: Acute oral toxicity testing was performed in mice in accordance with test method P203.UDP, as administered by Eurofins/Product Safety Laboratories (Dayton, New Jersey). CD-1/Swiss derived albino mice were obtained and group housed in suspended solid bottom caging. The mice were fed rodent chow and filtered tap water was supplied ad libitum. Following acclimation to the laboratory setting, a group of animals was fasted overnight by removing food from the cages. After the fasting period, three female mice were selected based on vitality and initial body weights. The individual compound doses were calculated from these body weights.
The test substance was prepared as a 1% (50 mg/kg) or 5% (500 mg/kg) weight to weight (w/w) mixture in a 0.5% w/w solution of carboxymethylcellulose (CMC) in distilled water. A tissue homogenizer was used to create a homogeneous mixture. A dose of 50 or 500 mg/kg was administered to three healthy mice per dose level by oral intubation using a ball-tipped gavage needle attached to a syringe. After administration, the animals were returned to their cages, and feed was replaced immediately after dosing.
Body weights were recorded prior to initiation and on Days 7 and 14 or a soon as possible after death.

Data set [5] relates to Heterodera glycines (SCN). As to the kind of experiment: Seed treatment test of soybean cyst nematode on soybean. The data set is classed as in vivo. The settings on record: Heterodera glycines, 672 h, test a, read-out: percent cyst reduction relative to control blank treatment. The gist of the method: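 Seeds (1 g cucumber for RKN, soybean for SCN) coated with compound in 500 ul acetone, air-dried, sown in sandy soil. Pots inoculated 3 days later with 1000 eggs per pot. Galling rated 14 days (RKN) or 28 days (SCN) after inoculation.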

For a further data set, the system named is root knot nematode (RKN). As to the kind of experiment: RKN greenhouse soil assay on cucumber plants. The data set is classed as in vivo. The conditions noted are these: Radex emulsifiable concentrate formulation (6.25% active ingredient).

Turning to `Cc1cc(Cl)ccc1-c1noc(-c2ccco2)n1` [compound 5823], the EC50 with C. elegans (24 h, L1 larvae, one day of exposure, read-out: EC50 L1 1D) amounted to 0.4 µg/mL (≈ 1.53 µM); with C. elegans (24 h, L4 larvae, one day of exposure, read-out: EC50 L4 1D), 1.6 µg/mL (≈ 6.14 µM); with C. elegans (48 h, L1 larvae, two days of exposure, read-out: EC50 L1 2D), 0.4 µg/mL (≈ 1.53 µM); in the data set with C. elegans (48 h, L4 larvae, two days of exposure, read-out: EC50 L4 2D), 0.4 µg/mL (≈ 1.53 µM); in the data set with C. elegans (72 h, L1 larvae, three days of exposure, read-out: EC50 L1 3D), 0.4 µg/mL (≈ 1.53 µM); in the data set on C. elegans (72 h, L4 larvae, three days, effects on the second generation larvae, read-out: EC50 L4 3D (F1)), 0.4 µg/mL (≈ 1.53 µM). Moreover, the “control of M. incognita by PPI application” value in the data set on Meloidogyne incognita [1] is given as “excellent control”. Further, the “susceptibility of ced-3 and ced-4 mutants versus wild-type C. elegans (N2 Bristol), including time to mortality” value in data set [2] was “No observable phenotypic difference in susceptibility”.

On to `c1ccc(-c2noc(-c3cccs3)n2)cc1` [compound 1822], for which the “1 ppm gall rating” value with Meloidogyne incognita [3] is on record as 0 (0=0-5%). The “acute oral toxicity: mortality and signs” value is given as “all animals survived” in data set [4] (50 mg/kg oral) and “all animals died within three days” in data set [4] (500 mg/kg oral). For the same molecule, the pest or weed control at 0.375 mg/g in data set [5] (0.375 mg ai/gram seed) turned out to be 58%. For the same molecule, the pest or weed control at 1.5 mg/g in data set [5] (1.5 mg ai/gram seed) came to 70%. In addition, the “percent control (galling reduction), Radex 1 mg/kg” value with root knot nematode (RKN) came to 98%.
